pIC50: −log10 of the molar value.
What follows are compounds tested against CDK2/Cyclin E1 (Homo sapiens (Human), UniProt P24941) (assay: CDK2/Cyclin E1 HTRF enzyme activity assay (Example A)). Conditions: 1 mM ATP.
Type: biochemical
Experimental: Assays were conducted in white 384-well polystyrene plates in a final reaction volume of 8 μL. […] HTRF signals were read after 1 hour at room temperature on a PHERAstar FS plate reader (BMG Labtech). Data was analyzed with IDBS XLFit and GraphPad Prism 5.0 software using a three or four parameter dose response curve to determine IC50 for each compound.

pIC50, ≥ 7.30:
COc1nccc(-n2cc(-c3nc(NC4CCN(S(C)(=O)=O)CC4)ncc3C(F)(F)F)nc2C)c1F [Example 314, 4-(1-(3-Fluoro-2-methoxypyridin-4-yl)-2-methyl-1H-imidazol-4-yl)-N-(1-(methylsulfonyl)piperidin-4-yl)-5-(trifluoromethyl)pyrimidin-2-amine]
CNCc1ccc(-n2cnc(-c3nc(NC4CCN(S(C)(=O)=O)CC4)ncc3C(F)(F)F)c2)c(Cl)c1 [Example 3, 4-(1-(2-Chloro-4-((methylamino)methyl)phenyl)-1H-imidazol-4-yl)-N-(1-(methylsulfonyl)piperidin-4-yl)-5-(trifluoromethyl)pyrimidin-2-amine]
CCN(C)Cc1ccc(-n2cnc(-c3nc(NC4CCN(S(C)(=O)=O)CC4)ncc3C(F)(F)F)c2)c(Cl)c1 [Example 192]
Cc1nccc(-n2cc(-c3nc(N[C@H]4CCN(S(C)(=O)=O)C[C@H]4F)ncc3C(F)(F)F)nc2C)c1F [Example 313, N-((3R,4S)-3-Fluoro-1-(methylsulfonyl)piperidin-4-yl)-4-(1-(3-fluoro-2-methylpyridin-4-yl)-2-methyl-1H-imidazol-4-yl)-5-(trifluoromethyl)pyrimidin-2-amine]
Cc1nc(-c2nc(NC3CCN(S(C)(=O)=O)CC3)ncc2C(F)(F)F)cn1-c1ccc(CCN2CCC2)cc1F [Example 416, 4-(1-(4-(2-(Azetidin-1-yl)ethyl)-2-fluorophenyl)-2-methyl-1H-imidazol-4-yl)-N-(1-(methylsulfonyl)piperidin-4-yl)-5-(trifluoromethyl)pyrimidin-2-amine]
Cn1cc(S(=O)(=O)N2CC[C@@H](Nc3ncc(C(F)(F)F)c(-c4cn(CC(C)(C)O)cn4)n3)[C@H](F)C2)cn1 [Example 336, 1-(4-(2-(((3R,4R)-3-Fluoro-1-((1-methyl-1H-pyrazol-4-yl)sulfonyl)piperidin-4-yl)amino)-5-(trifluoromethyl)pyrimidin-4-yl)-1H-imidazol-1-yl)-2-methylpropan-2-ol]
CS(=O)(=O)N1CCC(Nc2ncc(C(F)(F)F)c(-c3cn(-c4cccc(C#N)c4Br)cn3)n2)CC1 [Example 63, 2-Bromo-3-(4-(2-((1-(methylsulfonyl)piperidin-4-yl)amino)-5-(trifluoromethyl)pyrimidin-4-yl)-1H-imidazol-1-yl)benzonitrile]
CNCc1ccc(-n2cnc(-c3nc(N[C@H]4CCN(S(C)(=O)=O)C[C@H]4C)ncc3C(F)(F)F)c2)c(Cl)c1 [Example 182, 4-(1-(2-Chloro-4-((methylamino)methyl)phenyl)-1H-imidazol-4-yl)-N-((3R,4S)-3-methyl-1-(methylsulfonyl)piperidin-4-yl)-5-(trifluoromethyl)pyrimidin-2-amine]
CS(=O)(=O)N1CCC(Nc2ncc(C(F)(F)F)c(-c3cn(-c4cccc(C#N)c4CO)cn3)n2)CC1 [Example 232, 2-(Hydroxymethyl)-3-(4-(2-((1-(methylsulfonyl)piperidin-4-yl)amino)-5-(trifluoromethyl)pyrimidin-4-yl)-1H-imidazol-1-yl)benzonitrile]
CS(=O)(=O)N1CCC(Nc2ncc(C(F)(F)F)c(-c3cn(-c4ccccc4Cl)cn3)n2)CC1 [Example 55, 4-(1-(2-Chlorophenyl)-1H-imidazol-4-yl)-N-(1-(methylsulfonyl)piperidin-4-yl)-5-(trifluoromethyl)pyrimidin-2-amine]
Cc1nc(-c2nc(NC3CCN(S(C)(=O)=O)CC3)ncc2C(F)(F)F)cn1-c1ccc(N[C@@H]2CCCN(C)C2)cc1F [Example 117]
CNCc1ccc(-n2cc(-c3nc(N[C@H]4CCN(S(C)(=O)=O)C[C@H]4F)ncc3C(F)(F)F)nc2C)c(F)c1 [Example 287, N-((3R,4S)-3-Fluoro-1-(methylsulfonyl)piperidin-4-yl)-4-(1-(2-fluoro-4-((methylamino)methyl)phenyl)-2-methyl-1H-imidazol-4-yl)-5-(trifluoromethyl)pyrimidin-2-amine]
CCc1ccc(-n2cnc(-c3nc(NC4CCN(S(C)(=O)=O)CC4)ncc3C(F)(F)F)c2)c(C#N)n1 [Example 41, 6-Ethyl-3-(4-(2-((1-(methylsulfonyl)piperidin-4-yl)amino)-5-(trifluoromethyl)pyrimidin-4-yl)-1H-imidazol-1-yl)picolinonitrile]
CCN1CC(c2ccc(-n3cc(-c4nc(NC5CCN(S(C)(=O)=O)CC5)ncc4C(F)(F)F)nc3C)c(F)c2)C1 [Example 418, 4-(1-(4-(1-Ethylazetidin-3-yl)-2-fluorophenyl)-2-methyl-1H-imidazol-4-yl)-N-(1-(methylsulfonyl)piperidin-4-yl)-5-(trifluoromethyl)pyrimidin-2-amine]
Cc1nc(-c2nc(NC3CCN(S(C)(=O)=O)CC3)ncc2C(F)(F)F)cn1-c1ccc(C2CN(C[C@H](C)O)C2)cc1F [Example 419, (S)-1-(3-(3-Fluoro-4-(2-methyl-4-(2-((1-(methylsulfonyl)piperidin-4-yl)amino)-5-(trifluoromethyl)pyrimidin-4-yl)-1H-imidazol-1-yl)phenyl)azetidin-1-yl)propan-2-ol]
O=S(=O)(C1CC1)N1CC[C@H](Nc2ncc(C(F)(F)F)c(-c3cn(CC(F)F)cn3)n2)[C@H](F)C1 [Example 329, N-((3R,4S)-1-(Cyclopropylsulfonyl)-3-fluoropiperidin-4-yl)-4-(1-(2,2-difluoroethyl)-1H-imidazol-4-yl)-5-(trifluoromethyl)pyrimidin-2-amine]
CS(=O)(=O)N1CCC(Nc2ncc(C(F)(F)F)c(-c3cn(CC(F)(F)F)cn3)n2)CC1 [Example 23, N-(1-(Methylsulfonyl)piperidin-4-yl)-4-(1-(2,2,2-trifluoroethyl)-1H-imidazol-4-yl)-5-(trifluoromethyl)pyrimidin-2-amine]
CN1CCN(CCc2ccc(-n3cnc(-c4nc(NC5CCN(S(C)(=O)=O)CC5)ncc4C(F)(F)F)c3)c(Cl)c2)CC1=O [Example 159, 4-(3-Chloro-4-(4-(2-((1-(methylsulfonyl)-piperidin-4-yl)-amino)-5-(trifluoro-methyl)pyrimidin-4-yl)-1H-imidazol-1-yl)phenethyl)-1-methylpiperazin-2-one]
C[C@]1(O)CCN(Cc2ccc(-n3cnc(-c4nc(NC5CCN(S(C)(=O)=O)CC5)ncc4C(F)(F)F)c3)c(C(F)(F)F)c2)C1 [Example 261, (S)-3-Methyl-1-(4-(4-(2-((1-(methylsulfonyl)piperidin-4-yl)amino)-5-(trifluoromethyl)pyrimidin-4-yl)-1H-imidazol-1-yl)-3-(trifluoromethyl)benzyl) pyrrolidin-3-ol]
C[C@@H]1CN(S(C)(=O)=O)CC[C@@H]1Nc1ncc(C(F)(F)F)c(-c2cn(-c3ccc(CN(C)C)cc3Cl)cn2)n1 [Example 220, 4-(1-(2-Chloro-4-((dimethylamino)-methyl)phenyl)-1H-imidazol-4-yl)-N-((3R,4S)-3-methyl-1-(methylsulfonyl)-piperidin-4-yl)-5-(trifluoromethyl)-pyrimidin-2-amine]

Reference: patent US11427567B2, “Imidazolyl pyrimidinylamine compounds as CDK2 inhibitors” (Incyte Corporation, priority 2019, dated 2022)
